# In PMC5307958 (Scientific Reports, 2017):
# Entries after “also recorded” stand apart in the source; their conditions may differ. Where a SMILES comes first, the peptide text is derived from it. Bridges are numbered along the chain shown (N, C = ends).
# Key:
# [1] = biological target: T1, human BKα channel (ZERO isoform) expressed in HEK293 cells (Homo sapiens, UniProt Q12791); experiment: Patch-clamp recording, inside-out patches, intracellular application; assay type: cell-based; settings: 50 nM LS3 applied to intracellular (internal) side; n.s., N = 6
# T1 construct: expressed in transfected cells; host or cells: HEK293 (ATCC), transient transfection with Lipofectamine 2000; EGFP cotransfected as a separate marker
# T1 sequence (Q12791 1-1178 isoform Q12791-5): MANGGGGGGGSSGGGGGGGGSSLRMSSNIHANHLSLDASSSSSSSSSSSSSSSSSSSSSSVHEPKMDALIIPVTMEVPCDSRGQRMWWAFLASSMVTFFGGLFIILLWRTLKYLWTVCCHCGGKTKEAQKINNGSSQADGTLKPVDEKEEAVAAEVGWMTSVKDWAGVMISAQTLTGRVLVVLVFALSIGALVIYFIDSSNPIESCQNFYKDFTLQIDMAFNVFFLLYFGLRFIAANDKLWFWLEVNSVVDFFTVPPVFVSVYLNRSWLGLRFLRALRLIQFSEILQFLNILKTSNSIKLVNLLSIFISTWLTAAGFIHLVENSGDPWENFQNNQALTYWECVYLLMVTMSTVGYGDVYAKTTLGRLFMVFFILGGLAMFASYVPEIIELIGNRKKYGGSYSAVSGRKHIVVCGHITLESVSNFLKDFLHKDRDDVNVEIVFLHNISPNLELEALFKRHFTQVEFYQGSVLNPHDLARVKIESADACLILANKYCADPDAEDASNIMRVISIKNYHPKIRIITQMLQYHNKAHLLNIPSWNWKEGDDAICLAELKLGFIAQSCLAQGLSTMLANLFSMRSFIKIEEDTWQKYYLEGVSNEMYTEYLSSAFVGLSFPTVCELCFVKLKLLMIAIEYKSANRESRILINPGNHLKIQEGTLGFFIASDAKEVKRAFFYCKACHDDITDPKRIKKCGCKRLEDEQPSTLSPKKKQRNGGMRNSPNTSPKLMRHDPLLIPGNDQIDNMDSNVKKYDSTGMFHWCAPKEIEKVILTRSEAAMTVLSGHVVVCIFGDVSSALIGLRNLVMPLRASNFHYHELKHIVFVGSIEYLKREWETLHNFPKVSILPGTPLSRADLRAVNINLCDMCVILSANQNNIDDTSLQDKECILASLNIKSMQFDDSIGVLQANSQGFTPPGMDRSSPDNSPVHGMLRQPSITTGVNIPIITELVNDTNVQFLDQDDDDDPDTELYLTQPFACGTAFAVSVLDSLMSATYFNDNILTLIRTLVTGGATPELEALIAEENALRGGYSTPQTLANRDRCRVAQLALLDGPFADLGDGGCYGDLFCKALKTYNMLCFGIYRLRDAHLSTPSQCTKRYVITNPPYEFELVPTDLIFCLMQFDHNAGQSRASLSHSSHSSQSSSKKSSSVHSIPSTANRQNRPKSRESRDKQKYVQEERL
# 33 mammalian CNS targets = experiment: NIMH-PDSP competition binding panel, all targets
# Description: LS3 was screened against a comprehensive panel of CNS-based proteins. Detailed protocols can be found within the US National Institute of Mental Health Psychoactive Drug Screening Program (NIMH PDSP) Assay Protocol Book (version II), by B. L. Roth, March 2013 (available at: http://pdsp.med.unc.edu/PDSP%20Protocols%20II%202013-03-28.pdf). […] Radioactivity in the presence of the LS3 (sample) was calculated with the following equation and expressed as a percent inhibition: % inhibition = (sample CPM – non-specific CPM)/Total CPM – non-specific CPM) × 100. Total binding was measured with no competing ligand. Non-specific binding was measured in the presence of reference compound. The % inhibition by LS3 was measured 4 times for each receptor.
# mAcetylcholine M1 = experiment: Competition radioligand binding (NIMH PDSP); settings: radioligand QNB, measured 4 times
# [2] = system: auditory nerve and generators caudal to the IC; experiment: Auditory brainstem responses (ABR); assay type: in vivo, mouse
# Description: The temperature was maintained near 25 °C.
# ABR recordings were acquired after the mice were anesthetized with ketamine (120 mg/kg) and xylazine (10 mg/kg) I.P., and respiration was monitored throughout to determine when additional supplemental doses were needed. Body temperature was kept constant at 37 °C using a feedback controlled heating pad (Physitemp TCAT2-LV Controller, Clifton, NJ). Stimuli and recordings were generated digitally and controlled using a TDT RZ6 Multi-I/O Processor and their BioSig/SigGen software. Acoustic signals were played through a multi-field (MF1) magnetic speaker (TDT, Alachua, FL) with a total harmonic distortion < = 1% from 1 kHz to 50 kHz, centered 0° azimuth in regards to the animal at a distance of 10 cm from the ear pinna. Tone bursts were presented at frequencies of 6, 12, 16, 20, 24, and 36 kHz (3 ms duration, 1 ms rise/fall time, alternating polarity) at a rate of 29 per second, attenuated in 5 dB steps from 80 dB SPL to 15 dB below threshold or 5 dB SPL, whichever was lower. Threshold was determined by visual inspection as the lowest intensity level which produced a defined wave in both replicates. All signals were calibrated using a Larsen Davis preamplifier, model 2221, with a 1/4″ microphone and a Larson Davis CAL200 Precision Acoustic Calibrator (PCB Piezotronics, Inc., Depew, NY). ABR recordings were acquired using a TDT RA4LI low-impedance digital headstage and RA4PA Medusa preamp with the active (noninverting) electrode inserted at the vertex, the reference (inverting) electrode below the left ear, and the ground electrode below the right ear. The responses were amplified (20×), filtered (300 Hz–3 kHz), and averaged using BioSig software and the System III hardware (TDT) data-acquisition system. A total of 256 tone burst signal and 150 GIN signal recordings were replicated for each acquisition, and muscle artifacts exceeding 7 μV were rejected from the averaged response. All recordings took place in a soundproof booth lined with echo-attenuating acoustic foam. ABR waveforms were analyzed using a custom MatLab program that automatically determined peak latencies and amplitudes in combination with secondary verification by an experimenter blind to the treatment group.
# [3] = system: mouse inferior colliculus (auditory midbrain); experiment: Sound evoked activity within excitatory receptive field (eRF), systemic administration; settings: for spikes within the eRF, representative eRF: baseline 522 spikes, BF 19.5 kHz
# [4] = system: mouse inferior colliculus (auditory midbrain); experiment: Sound evoked activity within excitatory receptive field (eRF), topical application on dura
smiles,measurement,setting,value
CC(C)C[C@@H]1NC(=O)CNC(=O)[C@H](CCCNC(=N)N)NC(=O)[C@H](CCCNC(=N)N)NC(=O)[C@@H](N)CSSC[C@@H](C(=O)O)NC(=O)[C@H](C(C)C)NC(=O)[C@H](CCC(N)=O)NC(=O)[C@H](C(C)C)NC1=O [LS3] (H-CRRGLVQVC-OH; disulfide 1-9; N-terminus and C-terminus assumed),effect on Po (post vs. pre peptide),[1],did not reduce Po; also recorded: Only when applied to the external side did LS3 significantly reduce Po
same,interaction with known ligand binding sites on 33 mammalian CNS targets,33 mammalian CNS targets; 10 microM LS3,does not have high affinity interactions
same,inhibition of radioligand binding,"33 mammalian CNS targets; 10 microM LS3, all 33 targets, printed 'substantially less than 50%', each measured 4 times",less than 50%
same,Ki,"33 mammalian CNS targets; inferred from less than 50% inhibition at 10 microM LS3, array of CNS targets",> 10 µM
same,% inhibition by 10 µM LS3,mAcetylcholine M1,12.6%
same,mean ABR thresholds,"[2]; 4 hours post I.P. injection vs. baseline, tone bursts",No significant effect
same,activity at cochlear BK channels,[2]; inferred from unaltered ABRs after systemic administration,not active at cochlear BK channels
same,effect on ABRs / peripheral auditory processing,[2]; systemic (I.P.) administration,without altering peripheral auditory processing; also recorded: does not alter ABRs
same,ABR peak 1 (P1) amplitude by intensity functions,"[2]; systemic (I.P.) injection, 4 hrs vs. baseline, auditory nerve",unaffected; also recorded: Neither BK channel modulator reduced auditory nerve (P1)
same,ABR peak 4 (P4) amplitude by intensity functions,"[2]; systemic (I.P.) injection, 4 hrs vs. baseline, generators caudal to the IC (brainstem)",unaffected; also recorded: Neither BK channel modulator reduced auditory nerve (P1) or brainstem (P4) amplitudes
same,effect on sound evoked activity in the inferior colliculus,[3]; 0.3 mg/kg I.P. LS3,suppressed sound evoked activity in the inferior colliculus; also recorded: suppresses sound evoked activity in the IC when administered systemically
same,"spikes within the eRF, representative eRF","[3]; systemic (0.3 mg/kg I.P.) LS3, 2 hrs",41 spikes
same,"spikes within the eRF, representative eRF","[3]; systemic (0.3 mg/kg I.P.) LS3, 5 hours",37 spikes
same,reduction in spikes within the eRF,"[3]; systemic (0.3 mg/kg I.P.) LS3, over 2 hours, mean, 47 units from 5 CBA mice",85%
same,"decrease in sound evoked activity within the receptive field, representative eRF","[3]; systemic (0.3 mg/kg I.P.) LS3, over 5 hours",93%
same,time course of driven activity,"[3]; systemic LS3, mean of 49 units, F(32,936) = 7.724 P < 0.0001",continued to decline out to 7 hours
same,mean driven activity within receptive field,"[4]; 1 μL of 10 μM LS3, 120 minutes post application, baseline 450 spikes, mean, 49 units",~ 225 spikes
same,reduction of mean sound evoked activity,"[4]; 1 μL of 10 μM LS3, after 3 hours, 47 recording sites, N = 5 mice",~ 70%
same,mean sound evoked activity,"[4]; 1 μL of 10 μM LS3, after 3 hours, baseline 430, 47 recording sites, N = 5 mice",130 spikes
same,time course of driven activity,"[4]; 1 μL of 10 μM LS3, mean of 49 units, F(5,206) = 5.085 P = 0.0002",continued to decline out to 4 hours
same,reduction of sound evoked driven activity within the RF,"[4]; 1 μL of 10 μM stock, from baseline pre-peptide, Fig. 5A,B representative eRFs",approximately 50%
